Each structure is given as a SMILES string.

The target in this data set is T1, CYP21 (steroid 21-hydroxylase) (Homo sapiens, UniProt P08686).
T1 sequence (P08686 whole entry): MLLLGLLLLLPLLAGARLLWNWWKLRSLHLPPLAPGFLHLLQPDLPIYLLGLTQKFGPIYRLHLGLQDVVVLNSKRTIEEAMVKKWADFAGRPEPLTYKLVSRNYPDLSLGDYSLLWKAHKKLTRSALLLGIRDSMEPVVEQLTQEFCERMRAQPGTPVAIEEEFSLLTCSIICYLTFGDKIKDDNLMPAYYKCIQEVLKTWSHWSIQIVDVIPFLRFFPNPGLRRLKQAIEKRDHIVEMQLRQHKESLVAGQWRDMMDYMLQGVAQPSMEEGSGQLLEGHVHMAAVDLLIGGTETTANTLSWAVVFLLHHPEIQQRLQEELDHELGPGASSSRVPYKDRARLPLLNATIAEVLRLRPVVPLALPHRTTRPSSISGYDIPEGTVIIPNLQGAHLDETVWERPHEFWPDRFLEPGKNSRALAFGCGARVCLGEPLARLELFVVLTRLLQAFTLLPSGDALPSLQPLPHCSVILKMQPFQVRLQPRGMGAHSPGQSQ
As to the kind of experiment: Inhibition of human CYP21 transfected in HEK293 cells assessed as decrease in conversion of progesterone to 11-deoxycorticosterone preincubated for 5 hrs followed by progesterone addition measured after 20 hrs by ELISA. Type of data set: cell-based. Also noted: concentration or dose not given beside the values. Particulars: HEK293 cells transfected with human CYP21, probe progesterone. (In general: An ELISA detects its analyte on a solid surface through an enzyme-linked reagent.)
Regarding `CC(=O)Nc1cncc(C2=CC[C@H]3[C@@H]4CC=C5C[C@@H](O)CC[C@]5(C)[C@H]4CC[C@]23C)c1`, the inhibition at 20 h was less than 10%.
Turning to `C[C@]1(O)CC[C@@]2(C)C(=CC[C@@H]3[C@@H]2CC[C@]2(C)C(c4cncc(F)c4)=CC[C@@H]32)C1`, the inhibition at 20 h was 10 to 50%.
To `CC1C[C@@]2(C)C(CC[C@@H]3[C@@H]2CC[C@]2(C)C(c4cccnc4)=CC[C@@H]32)C(C)C1O` (stereo not given in full) belongs 10 to 50%.
Consider `C[C@]12CC[C@H](O)CC1=CC[C@@H]1[C@@H]2CC[C@]2(C)C(c3cncc(NS(C)(=O)=O)c3)=CC[C@@H]12`, for which the inhibition at 20 h is less than 10%.
The result for `C[C@]12CC[C@@H](NS(=O)(=O)C3CC3)CC1=CC[C@@H]1[C@@H]2CC[C@]2(C)C(c3cccnc3)=CC[C@@H]12` reads 10 to 50%; that for `COC1CC[C@@]2(C)C(=CC[C@@H]3[C@@H]2CC[C@]2(C)C(c4cncc(C)c4)=CC[C@@H]32)C1` (stereo not given in full), less than 10%; that for `C[C@]12CC[C@@H](NC(=O)c3nccs3)CC1=CC[C@@H]1[C@@H]2CC[C@]2(C)C(c3cccnc3)=CC[C@@H]12`, 10 to 50%.
The result for `C[C@]12CCNC(=O)CC1CC[C@@H]1[C@@H]2CC[C@]2(C)C(c3cncc(F)c3)=CC[C@@H]12` (stereo not given in full) reads 10 to 50%.
With `Cc1ccncc1C1=CC[C@H]2[C@@H]3CC[C@H]4CNC(=O)CC[C@]4(C)[C@H]3CC[C@]12C`, the inhibition at 20 h fell in the range of 10 to 50%.
Turning to `CCc1ccncc1C1=CC=C2[C@@H]3CCC4CNC(=O)CC[C@]4(C)[C@H]3CC[C@]12C` (stereo not given in full), the inhibition at 20 h was in the range of 10 to 50%.
The result for `C[C@H]1C2CC[C@@H]3[C@H](CC[C@]4(C)C(c5cncc(C(F)F)c5)=CC[C@@H]34)[C@@]2(C)CC[C@@H]1O` (stereo not given in full) reads 10 to 50%; that for `C[C@]12CC[C@H]3[C@@H](CC(Nc4nccs4)C45CC4CC[C@]35C)[C@@H]1CC=C2c1cccnc1` (stereo not given in full), 10 to 50%.
The result for `CCNC(=O)N[C@@H]1CC[C@@]2(C)C(CC[C@@H]3[C@@H]2CC[C@]2(C)C(n4ccnc4)=CC[C@@H]32)C1` (stereo not given in full) reads not below 50%.
To `CCC(=O)O[C@H]1CC[C@@]2(C)C(=CC[C@H]3C4=CC=C(c5cccnc5)[C@@]4(C)CC[C@@H]32)C1` belongs 10 to 50%; to `C[C@]12CCC(O)(CCCO)CC1CC[C@@H]1[C@@H]2CC[C@]2(C)C(c3cccnc3)=CC[C@@H]12` (stereo not given in full), 10 to 50%; to `C[C@@]1(O)CC[C@@]2(C)C(CC[C@@H]3[C@@H]2CC[C@]2(C)C(c4cncc(Cl)c4)=CC[C@@H]32)C1` (stereo not given in full), 10 to 50%.
In the case of `COc1cncc(C2=CC[C@H]3[C@@H]4CC[C@H]5C[C@@H](OC)CC[C@]5(C)[C@H]4CC[C@]23C)c1`, the inhibition at 20 h lay within 10 to 50%.
The result for `CC(C)(C)C(=O)O[C@H]1CC[C@@]2(C)C(=CC[C@H]3C4=CC=C(c5cccnc5)[C@@]4(C)CC[C@@H]32)C1` reads 10 to 50%; that for `CC1(C)C2=CC[C@@H]3[C@H](CC[C@]4(C)C(c5cccnc5)=CC[C@@H]34)[C@@]2(C)CC/C1=N\O`, less than 10%; that for `C[C@@]1(O)CC[C@@]2(C)C(CC[C@@H]3[C@@H]2CC[C@]2(C)C(c4cccnc4)=CC[C@@H]32)C1` (stereo not given in full), less than 10%.
For `CC1C[C@@H]2[C@H](CC[C@]3(C)C(c4cccnc4)=CC[C@@H]23)[C@@]2(C)CC[C@@](C)(O)CC12` (stereo not given in full), the inhibition at 20 h was 10 to 50%.
To `C[C@@H]1C2CC[C@@H]3[C@H](CC[C@]4(C)C(c5cncc(C(F)F)c5)=CC[C@@H]34)[C@@]2(C)CC[C@H]1O` (stereo not given in full) belongs less than 10%.
With `C[C@]12CC[C@H]3[C@@H](CCC45CC4NC(=O)CC[C@]35C)[C@@H]1CC=C2c1cccnc1` (stereo not given in full), the inhibition at 20 h is less than 10%.
To `C[C@]12CC[C@@H](N=[N+]=[N-])CC1CC[C@@H]1[C@@H]2CC[C@]2(C)C(c3cccnc3)=CC[C@@H]12` (stereo not given in full) belongs 10 to 50%; to `CCc1ccncc1C1=CC=C2[C@@H]3CCC4C[C@@H](OC(C)=O)CC[C@]4(C)[C@H]3CC[C@]12C` (stereo not given in full), 10 to 50%.
To `C[C@]12CC[C@H]3[C@@H](CC=C4C=CCC[C@@]43C)C1=CC=C2c1cccnc1` belongs 10 to 50%.
Take `CCc1ccncc1C1=CC=C2[C@@H]3CCC4CC(=O)CC[C@]4(C)[C@H]3CC[C@]12C` (stereo not given in full): the inhibition at 20 h was in the range of 10 to 50%.
The result for `C[C@]12CCC(=O)C=C1C(C1CC1)C[C@@H]1[C@@H]2CC[C@]2(C)C(c3cccnc3)=CC[C@@H]12` (stereo not given in full) reads less than 10%.
In the case of `CN1CCC(C(=O)O[C@H]2CC[C@@]3(C)C(=CC[C@H]4C5=CC=C(c6cccnc6)[C@@]5(C)CC[C@@H]43)C2)CC1`, the inhibition at 20 h fell in the range of 10 to 50%.
To `CCNC(=O)O[C@H]1CC[C@@]2(C)C(=CC[C@H]3C4=CC=C(c5cccnc5)[C@@]4(C)CC[C@@H]32)C1` belongs less than 10%.
The result for `CCc1ccncc1C1=CC[C@H]2[C@@H]3CC[C@H]4CC(=O)NCC[C@]4(C)[C@H]3CC[C@]12C` reads 10 to 50%.
The result for `CC1C[C@H]2[C@@H]3CC=C(c4cncc(F)c4)[C@@]3(C)CC[C@@H]2[C@@]2(C)CC[C@H](O)CC12O` (stereo not given in full) reads 10 to 50%; that for `CC1CC2[C@H](CC[C@]3(C)C(c4cccnc4)=CC[C@@H]23)[C@@]2(C)CCC(C)(O)C=C12` (stereo not given in full), 10 to 50%.
On to `Cc1cc(C2=CC[C@H]3[C@@H]4CC=C5C[C@@H](O)CC[C@]5(C)[C@H]4CC[C@]23C)cnc1F`, for which the inhibition at 20 h was less than 10%.
As for `C[C@]12CC[C@H]3[C@@H](CC=C4C[C@@H](O)CC[C@@]43C)C1=CC=C2c1cncc(Cl)c1`, the inhibition at 20 h lay within 10 to 50%.
Turning to `Cc1ccncc1C(=O)O[C@H]1CC[C@@]2(C)C(=CC[C@H]3C4=CC=C(c5cccnc5)[C@@]4(C)CC[C@@H]32)C1`, the inhibition at 20 h fell in the range of 10 to 50%.
As for `CCNC(=S)N[C@@H]1CC[C@@]2(C)C(=CC[C@@H]3[C@@H]2CC[C@]2(C)C(c4cccnc4)=CC[C@@H]32)C1`, the inhibition at 20 h was 10 to 50%.
To `CN1C(=O)CC[C@@]2(C)C1=CC[C@@H]1[C@@H]2CC[C@]2(C)C(c3cnccc3F)=CC[C@@H]12` belongs 10 to 50%.
As for `CC1=C2CC[C@@H]3[C@H](CC[C@]4(C)C(c5cccnc5)=CC[C@@H]34)[C@@]2(C)CC/C1=N\O`, the inhibition at 20 h is 10 to 50%.
To `C[C@]12CC[C@H]3[C@@H](CCC45CC4C(O)CC[C@]35C)[C@@H]1CC=C2c1cncc(F)c1` (stereo not given in full) belongs 10 to 50%.
To `Cc1cnc(F)c(C2=CC[C@H]3[C@@H]4CCC5=CC(=O)CC[C@]5(C)[C@H]4CC[C@]23C)c1` belongs 10 to 50%; to `Cc1ccncc1C1=CC=C2[C@@H]3CC[C@H]4CC(=O)NCC[C@]4(C)[C@H]3CC[C@]12C`, 10 to 50%; to `Cc1ccncc1C1=CC=C2C3CCC4C[C@@H](O)CC[C@]4(C)C3CC[C@]12C` (stereo not given in full), 10 to 50%.
The result for `C[C@]12CC[C@H]3[C@@H](CC(c4ccccc4)C4=CC(=O)CC[C@@]43C)C1=CC=C2c1cccnc1` (stereo not given in full) reads 10 to 50%; that for `C[C@]12CC[C@H](O)CC1=CC[C@@H]1[C@@H]2CC[C@]2(C)C(c3cncc(C#N)c3)=CC[C@@H]12`, 10 to 50%.

The term inhibition denotes the percentage by which the read-out fell short of the control.

For the origin of these results see ChEMBL document CHEMBL3882724 (2013).
